Measured values as given in the supplement of paper PMC10949913.

Columns and labels:
Assay in all cases: area under concentration-response curve (viability) (AUC (a.u.)); higher = less active
Settings in all cases: 48 h
[1] = system: CU-ACC2
In short: (§1)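 Library compounds were dispensed at 11 concentrations (23 nL each) onto three adrenocortical carcinoma cell lines in 1,536-well plates. Luminescence was recorded after 48 h using CellTiter-Glo, and signals were normalised per plate to vehicle and empty-well controls. Fitted concentration-response curves of inhibitory or non-responding classes only supplied the AC50 and area under the curve.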

[2] = system: CU-ACC1
In short: as §1

[3] = system: NCI-H295R
In short: as §1

SMILES | area under concentration-response curve [1] | area under concentration-response curve [2] | area under concentration-response curve [3]
OC1=C(C=CC=C1)C2=CC=C(C=C2)C3=CSC4=C3C(=C(/C#N)C(=O)N4)/O | 626 | 535 | 570
C[C@H]1CN(CCN1C2=CN=C(NC/3=C/C(=C\N(C)C3=O)C4=CC=NC(=C4CO)N5CC[N]6C7=C(CC(C)(C)C7)C=C6C5=O)C=C2)C8COC8 | 618 | 532 | 560
CC(C)(C)C#Cc1cc(N(C(=O)[C@H]2CC[C@H](C)CC2)[C@H]2CC[C@@H](O)CC2)c(C(=O)O)s1 | 478 | 497 | 497
OC[C@H]1O[C@@H](OC2=CC3=C(C=C2)C(=O)\C(=C/O3)C4=CC=C(O)C=C4)[C@H](O)[C@@H](O)[C@@H]1O | 591 | 551 | 576
O=C(NCC[S+](=O)([O-])c1ccc(C(F)(F)F)cn1)c1ccc(Cl)cc1 | 580 | 520 | 544
C[C@]1(C(=O)N(CCCC(=O)O)Cc2cccc(Cl)c2)CCN1C(=O)c1csc2ccccc12 | 584 | 490 | 532
COc1ccc([S+](=O)([O-])NCc2ccc(C(=O)NCCc3ccc(Cl)cn3)cc2)cc1 | 654 | 565 | 614
Cc1c(OCC(F)(F)F)ccnc1C[S+]([O-])c1nc2ccccc2[nH]1 (stereo not drawn) | 624 | 526 | 571
O=C(NOCC(O)CO)c1ccc(F)c(F)c1Nc1ccc(I)cc1F (stereo not drawn) | 459 | 329 | 488
Cc1oncc1C(=O)Nc1ccc(C(F)(F)F)cc1 | 498 | 421 | 481
COC(=O)N[C@@H](C)CNc1nccc(-c2cn(C(C)C)nc2-c2cc(Cl)cc(N[S+](C)(=O)[O-])c2F)n1 | 566 | 497 | 539
C=C1[C@H](OC(=O)/C=C(\C)CC)C[C@@H](C(C)C)[C@@H]2[C@H]([C@@H](C)OC(C)=O)C(=O)C[C@@H]12 | 617 | 527 | 557
O=C1NNc2nc(CN3Cc4ccccc4C3)nc3cccc1c23 | 600 | 537 | 526
O=C(O)C1CCCN(CCC=C(c2ccccc2)c2ccccc2)C1 (stereo not drawn) | 520 | 540 | 539
COc1cc(C(C)C)c(Oc2cnc(NC(CO)CO)nc2N)cc1I | 661 | 557 | 594
CC1=C(/C=C/C(C)=C/C=C/C(C)=C/C(=O)O)C(C)(C)CCC1 | 592 | 503 | 476
Nc1nc(N)c2nc(CNc3ccc(C(=O)NC(CCC(=O)O)C(=O)O)cc3)cnc2n1 (stereo not drawn) | 543 | 458 | 515
COc1cc2c(cc1-c1c(C)noc1C)ncc1[nH]c(=O)n([C@H](C)c3ccccn3)c12 | 515 | 490 | 459
CCOC(=O)C(C)(C)Oc1ccc(Cl)cc1 | 453 | 451 | 444
COc1ccc2c(C(=S)N(C)CC(=O)O)cccc2c1C(F)(F)F | 535 | 490 | 481
CC(=O)OCC(=O)[C@@]12OC(C)(C)O[C@@H]1C[C@H]3[C@@H]4C[C@H](F)C/5=C/C(=O)/C=C\[C@]5(C)[C@@]4(F)[C@@H](O)C[C@]23C | 528 | 439 | 519
CNc1nc(C)nc(N[C@H]2CCC[C@@H](C(=O)NCc3ccc(C#N)cc3C(F)(F)F)C2)n1 | 593 | 497 | 496
O=C(O)CCNC(=O)c1ccc(/N=N/c2ccc(O)c(C(=O)O)c2)cc1 | 635 | 519 | 589

SMILES | area under concentration-response curve [1] | area under concentration-response curve [2] | area under concentration-response curve [3]
Nc1ncnc2c1ncn2[C@@H]1O[C@H](CO)[C@@H](O)[C@@H]1O | 582 | 496 | 515
CN1C(=O)C(=C\C2=C1N=C(NC3=CC=CC(=C3)C(O)=O)N=C2)/C4=C(Cl)C=CC=C4Cl | 528 | 515 | 483
NC1=NC=CC2=C1N=C[N]2[C@@H]3\C=C(CO)/[C@@H](O)[C@H]3O | 454 | 448 | 403
CC(C)C1CCC(C(=O)N[C@H](Cc2ccccc2)C(=O)O)CC1 (stereo partly drawn) | 652 | 551 | 599
C[C@]12COC(=O)C[C@@H]1CC[C@@H]1[C@@H]2CC[C@@]2(C)[C@H]1CC[C@]2(C)O | 482 | 448 | 447
NC\1=N\C(=O)N(\C=C1)[C@@H]2CS[C@H](CO)O2 | 612 | 534 | 569
C[S+](=O)([O-])OCCCCO[S+](C)(=O)[O-] | 514 | 463 | 507
CCCOc1ccc2[nH]c(NC(=O)OC)nc2c1 | 568 | 499 | 480
CC[C@H](C)C(=O)O[C@H]1C[C@@H](C)\C=C2\C=C/[C@H](C)[C@H](CC[C@@H]3C[C@@H](O)CC(=O)O3)[C@@H]12 | 647 | 576 | 576
C[C@@H]1O[C@@H](O[C@@H]2\C=C/C=C\C=C/C=C\C[C@H](C)OC(=O)/C=C\[C@H]3O[C@@H]3C[C@H](O)C[C@]3(O)C[C@@H](O)[C@@H](C(=O)O)[C@H](C2)O3)[C@H](O)[C@H](N)[C@@H]1O | 572 | 395 | 573
CCCCOC(=O)N[S+](=O)([O-])c1sc(CC(C)C)cc1-c1ccc(Cn2ccnc2)cc1 | 412 | 357 | 460
COc1cc([C@@H]2c3cc4c(cc3[C@@H](O)C3COC(=O)C32)OCO4)cc(OC)c1O (stereo partly drawn) | 559 | 500 | 511
Cc1ccc([S+](=O)([O-])Nc2nc3ccccc3nc2Nc2ccc3nsnc3c2)cc1 | 640 | 558 | 535
OC[C@H]1O[C@H]([C@H](O)[C@@H]1O)N2\C=C/C(=O)NC2=O | 535 | 485 | 502
C[C@@H]1COCCN1C\2=C\C(=O)N\3CC[C@H](N(CC4=CN=CC(=C4)Cl)C3=N2)C(F)(F)F | 661 | 550 | 590
CN1C(=O)N(c2cc(Cl)cc(Cl)c2)C(=O)[C@]12CN(Cc1cc(C(=O)O)cs1)C[C@H]2c1ccc(C#N)cc1 | 420 | 401 | 404
S=C1N\C=N/C2=C1[NH]C=N2 | 518 | 438 | 495
N[C@@H](Cc1cc(I)c(Oc2cc(I)c(O)c(I)c2)c(I)c1)C(=O)O | 620 | 548 | 564
C[C@]12CC[C@H]3[C@@H](C\C=C/4C[C@@H](O)CC[C@]34C)[C@@H]1CCC2=O | 591 | 523 | 479
Cc1c(NC(=O)c2cc(C(N)=O)nc3cc(F)ccc23)c(C(F)(F)F)nn1Cc1ccc(C(C)(C)C)cc1 | 589 | 506 | 533
COc1cc2cc(c1Cl)N(C)C(=O)C[C@H](OC(=O)C(C)C)[C@]1(C)O[C@@H]1[C@H](C)[C@@H]1C[C@@](O)(NC(=O)O1)[C@H](OC)/C=C/C=C(\C)C2 | 440 | 505 | 346
COc1ccc(-c2cc(=O)c3c(O)cc(O)cc3o2)cc1O | 447 | 452 | 437
N=C(N)NN.N=C(N)NN.O=S(=O)(O)O | 559 | 503 | 524
